Laboratory results: PMC4175002, “The Design and Synthesis of Potent and Selective Inhibitors of Trypanosoma brucei Glycogen Synthase Kinase 3 for the Treatment of Human African Trypanosomiasis” (Journal of Medicinal Chemistry, 2014)

Tests used:
[1] = molecular target: HsGSK3β (Homo sapiens, UniProt P49841); assay: Radiometric Flashplate potency assay, HsGSK3β; assay type: biochemical; conditions: ratio of IC50 values
Experimental: For compound potency determinations, a radiometric 96-well Flashplate assay (PerkinElmer) was adopted. Compounds were solubilized in DMSO at a top concentration of 3 mM and serially diluted to achieve 10-point titration of final assay concentrations from 30 μM to 0.3 nM with a final DMSO concentration of 1% (v/v). The reaction mixtures contained 1 μM biotinylated GSP2 substrate, 1 μM ATP, 3.7 KBq/well [γ-33P]-ATP and 2.5 nM TbGSK3 in the TbGSK3 kinase assay buffer. GSK3 inhibitors were screened for selectivity assessment also against HsGSK3β. For HsGSK3 assay, the reaction mixes contained 1 μM biotinylated GSP2 substrate, 2 μM ATP, 7.4 KBq/well [γ-33P]-ATP and 15 nM HsGSK3β in the TbGSK3 kinase assay buffer (25 mM Tris-HCl, pH 7.5, 10 mM MgCl2, 5 mM DTT, 0.02% CHAPS, 2 U/mL heparin). For HsCDK2/cyclin A assay, the reaction mixtures contained 1 mM CDK5 biotinylated peptide substrate (Biotin-C6-PKTPKKAKKL), 1 μM ATP, 7.4 KBq/well [γ-^33P]-ATP and 2 nM HsCDK2/cyclin A in the kinase assay buffer (50 mM Tris-HCl, pH 7.5, 10 mM MgCl2, 2 mM DTT, 100 mM NaCl, 0.2 mM EGTA, 0.02% (v/v) Brij35).
This implies that a difference of >0.3 in pIC50 can be considered statistically significant for this assay.

[2] = test system: IKK; assay: Mammalian kinase profiling (DSTT panel); assay type: biochemical, human; conditions: 10 μM; average percentage of remaining activity
Experimental: (§1) To assess the selectivity of the aminopyrazole inhibitors, remaining activity at 10 μM concentration was measured for compounds 4f, 4m, and 4y against a panel of 80 human PKs and for compound 9g against 124 human PKs. […] Compound 4m inhibited only two PKs, namely GSK3β and CDK2, at more than 80%.
(§2) Selected compounds were screened against a panel of mammalian kinases routinely run by the Division of Signal Transduction Therapy (DSTT) at the University of Dundee in duplicate at 10 μM.[32] Enzymes included in the panel and assay conditions are reported in the literature. All biochemical assays are run below the Km^app for the ATP for each enzyme, allowing comparison of inhibition across the panel.

[3] = molecular target: T1, PKC zeta (Homo sapiens, UniProt Q05513); assay: Mammalian kinase profiling (DSTT panel); assay type: biochemical; conditions: 10 μM; average percentage of remaining activity
T1 construct: purchased Division of Signal Transduction Therapy (DSTT), University of Dundee
Experimental: as §1, §2

[4] = molecular target: T2, BRSK2 (Homo sapiens, UniProt Q8IWQ3); assay: Mammalian kinase profiling (DSTT panel); assay type: biochemical; conditions: 10 μM; average percentage of remaining activity
T2 construct: purchased Division of Signal Transduction Therapy (DSTT), University of Dundee
Experimental: as §1, §2

[5] = molecular target: T3, CHK1 (Homo sapiens, UniProt O14757); assay: Mammalian kinase profiling (DSTT panel); assay type: biochemical; conditions: 10 μM; average percentage of remaining activity
T3 construct: purchased Division of Signal Transduction Therapy (DSTT), University of Dundee
Experimental: as §1, §2

[6] = molecular target: T4, TBK1 (Homo sapiens, UniProt Q9UHD2); assay: Mammalian kinase profiling (DSTT panel); assay type: biochemical; conditions: 10 μM; average percentage of remaining activity
T4 construct: purchased Division of Signal Transduction Therapy (DSTT), University of Dundee
Experimental: as §1, §2

[7] = molecular target: T5, CSK (Homo sapiens, UniProt P41240); assay: Mammalian kinase profiling (DSTT panel); assay type: biochemical; conditions: 10 μM; average percentage of remaining activity
T5 construct: purchased Division of Signal Transduction Therapy (DSTT), University of Dundee
Experimental: as §1, §2

[8] = molecular target: T6, NEK6 (Homo sapiens, UniProt Q9HC98); assay: Mammalian kinase profiling (DSTT panel); assay type: biochemical; conditions: 10 μM; average percentage of remaining activity
T6 construct: purchased Division of Signal Transduction Therapy (DSTT), University of Dundee
Experimental: as §1, §2

[9] = molecular target: T7, FGF-R1 (Homo sapiens, UniProt P11362); assay: Mammalian kinase profiling (DSTT panel); assay type: biochemical; conditions: 10 μM; average percentage of remaining activity
T7 construct: purchased Division of Signal Transduction Therapy (DSTT), University of Dundee
Experimental: as §1, §2

[10] = molecular target: T8, MARK3 (Homo sapiens, UniProt P27448); assay: Mammalian kinase profiling (DSTT panel); assay type: biochemical; conditions: 10 μM; average percentage of remaining activity
T8 construct: purchased Division of Signal Transduction Therapy (DSTT), University of Dundee
Experimental: as §1, §2

[11] = molecular target: T9, RSK1 (Homo sapiens, UniProt Q15418); assay: Mammalian kinase profiling (DSTT panel); assay type: biochemical; conditions: 10 μM; average percentage of remaining activity
T9 construct: purchased Division of Signal Transduction Therapy (DSTT), University of Dundee
T9 sequence (Q15418 whole entry): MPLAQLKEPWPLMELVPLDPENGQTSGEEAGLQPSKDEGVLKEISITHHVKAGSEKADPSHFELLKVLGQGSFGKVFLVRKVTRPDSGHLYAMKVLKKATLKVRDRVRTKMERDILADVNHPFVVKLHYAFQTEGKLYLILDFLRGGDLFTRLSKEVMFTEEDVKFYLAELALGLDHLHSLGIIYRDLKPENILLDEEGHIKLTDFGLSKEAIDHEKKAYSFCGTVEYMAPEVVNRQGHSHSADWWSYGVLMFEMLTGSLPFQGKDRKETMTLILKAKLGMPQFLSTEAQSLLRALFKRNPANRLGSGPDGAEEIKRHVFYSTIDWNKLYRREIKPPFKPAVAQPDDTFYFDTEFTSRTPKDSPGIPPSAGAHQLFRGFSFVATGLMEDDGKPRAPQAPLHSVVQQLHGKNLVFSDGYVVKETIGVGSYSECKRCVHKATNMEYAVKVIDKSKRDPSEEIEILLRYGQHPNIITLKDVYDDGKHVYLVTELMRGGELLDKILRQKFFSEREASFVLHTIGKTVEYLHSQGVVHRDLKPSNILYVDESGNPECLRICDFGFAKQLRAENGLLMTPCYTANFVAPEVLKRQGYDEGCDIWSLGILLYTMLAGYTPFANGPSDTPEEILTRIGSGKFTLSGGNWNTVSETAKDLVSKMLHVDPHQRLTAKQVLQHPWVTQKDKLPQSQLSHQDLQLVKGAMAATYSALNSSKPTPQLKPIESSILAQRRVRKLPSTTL
Experimental: as §1, §2

[12] = molecular target: T10, P38a MAPK (Homo sapiens, UniProt Q16539); assay: Mammalian kinase profiling (DSTT panel); assay type: biochemical; conditions: 10 μM; average percentage of remaining activity
T10 construct: purchased Division of Signal Transduction Therapy (DSTT), University of Dundee
T10 sequence (Q16539 whole entry): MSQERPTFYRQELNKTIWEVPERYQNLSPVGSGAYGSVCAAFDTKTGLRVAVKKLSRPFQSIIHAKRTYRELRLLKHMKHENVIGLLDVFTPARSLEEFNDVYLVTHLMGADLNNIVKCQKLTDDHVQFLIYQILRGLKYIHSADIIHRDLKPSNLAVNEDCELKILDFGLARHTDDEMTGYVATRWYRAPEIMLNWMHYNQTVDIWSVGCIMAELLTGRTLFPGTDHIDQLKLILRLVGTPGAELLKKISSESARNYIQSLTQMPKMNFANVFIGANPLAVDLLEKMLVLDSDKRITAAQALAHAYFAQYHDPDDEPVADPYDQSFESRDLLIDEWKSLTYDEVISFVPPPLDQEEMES
Experimental: as §1, §2

[13] = molecular target: T11, EF2K (Homo sapiens, UniProt O00418); assay: Mammalian kinase profiling (DSTT panel); assay type: biochemical; conditions: 10 μM; average percentage of remaining activity
T11 construct: purchased Division of Signal Transduction Therapy (DSTT), University of Dundee
Experimental: as §1, §2

[14] = molecular target: T12, PAK5 (Homo sapiens, UniProt Q9P286); assay: Mammalian kinase profiling (DSTT panel); assay type: biochemical; conditions: 10 μM; average percentage of remaining activity
T12 construct: purchased Division of Signal Transduction Therapy (DSTT), University of Dundee
T12 sequence (Q9P286 whole entry): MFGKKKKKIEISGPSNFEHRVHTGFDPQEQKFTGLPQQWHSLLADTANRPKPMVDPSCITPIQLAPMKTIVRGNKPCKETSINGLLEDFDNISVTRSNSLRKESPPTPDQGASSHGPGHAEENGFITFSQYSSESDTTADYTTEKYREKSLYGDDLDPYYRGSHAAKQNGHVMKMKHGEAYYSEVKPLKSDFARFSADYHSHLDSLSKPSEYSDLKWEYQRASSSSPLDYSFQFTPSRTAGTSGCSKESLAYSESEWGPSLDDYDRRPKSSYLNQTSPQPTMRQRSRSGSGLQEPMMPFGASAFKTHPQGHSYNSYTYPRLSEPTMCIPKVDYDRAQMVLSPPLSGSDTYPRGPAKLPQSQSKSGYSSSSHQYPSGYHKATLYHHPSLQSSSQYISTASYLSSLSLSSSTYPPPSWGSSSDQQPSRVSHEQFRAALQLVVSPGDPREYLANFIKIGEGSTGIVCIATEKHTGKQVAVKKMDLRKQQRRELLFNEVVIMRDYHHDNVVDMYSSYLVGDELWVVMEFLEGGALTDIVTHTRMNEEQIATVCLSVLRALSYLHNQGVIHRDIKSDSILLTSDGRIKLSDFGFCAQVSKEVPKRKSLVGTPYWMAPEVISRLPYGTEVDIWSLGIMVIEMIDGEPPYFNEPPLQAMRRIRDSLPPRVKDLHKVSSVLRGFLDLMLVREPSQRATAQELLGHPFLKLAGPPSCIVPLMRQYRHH
Experimental: as §1, §2

[15] = molecular target: T13, IKKe (Homo sapiens, UniProt Q14164); assay: Mammalian kinase profiling (DSTT panel); assay type: biochemical; conditions: 10 μM; average percentage of remaining activity
T13 construct: purchased Division of Signal Transduction Therapy (DSTT), University of Dundee
Experimental: as §1, §2

[16] = molecular target: T14, MSK1 (Homo sapiens, UniProt O75582); assay: Mammalian kinase profiling (DSTT panel); assay type: biochemical; conditions: 10 μM; average percentage of remaining activity
T14 construct: purchased Division of Signal Transduction Therapy (DSTT), University of Dundee
T14 sequence (O75582 whole entry): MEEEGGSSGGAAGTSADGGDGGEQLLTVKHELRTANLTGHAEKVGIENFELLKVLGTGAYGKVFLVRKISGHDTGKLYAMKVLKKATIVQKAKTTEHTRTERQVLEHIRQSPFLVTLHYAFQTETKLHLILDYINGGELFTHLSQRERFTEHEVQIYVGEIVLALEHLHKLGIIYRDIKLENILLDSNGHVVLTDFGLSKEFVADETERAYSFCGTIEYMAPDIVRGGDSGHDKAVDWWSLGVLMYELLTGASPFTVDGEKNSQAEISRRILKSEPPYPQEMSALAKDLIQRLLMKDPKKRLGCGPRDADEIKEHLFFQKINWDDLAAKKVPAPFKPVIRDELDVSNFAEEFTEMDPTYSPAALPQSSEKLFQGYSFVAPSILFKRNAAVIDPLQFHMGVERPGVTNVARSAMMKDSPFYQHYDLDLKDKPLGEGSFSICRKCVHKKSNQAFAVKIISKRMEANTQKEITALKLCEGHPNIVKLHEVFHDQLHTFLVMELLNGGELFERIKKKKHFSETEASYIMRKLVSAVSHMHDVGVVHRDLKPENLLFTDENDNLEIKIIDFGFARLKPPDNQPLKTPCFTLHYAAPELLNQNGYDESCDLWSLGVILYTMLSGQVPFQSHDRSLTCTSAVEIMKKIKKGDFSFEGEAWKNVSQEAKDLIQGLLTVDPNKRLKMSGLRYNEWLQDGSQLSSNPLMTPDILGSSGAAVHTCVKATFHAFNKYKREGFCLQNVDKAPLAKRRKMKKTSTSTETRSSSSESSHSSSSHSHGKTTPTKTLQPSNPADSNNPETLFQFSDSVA
Experimental: as §1, §2

[17] = molecular target: T15, Src (Homo sapiens, UniProt P12931); assay: Mammalian kinase profiling (DSTT panel); assay type: biochemical; conditions: 10 μM; average percentage of remaining activity
T15 construct: purchased Division of Signal Transduction Therapy (DSTT), University of Dundee
Experimental: as §1, §2

[18] = molecular target: T16, VEG-FR (Homo sapiens, UniProt P17948); assay: Mammalian kinase profiling (DSTT panel); assay type: biochemical; conditions: 10 μM; average percentage of remaining activity
T16 construct: purchased Division of Signal Transduction Therapy (DSTT), University of Dundee
T16 sequence (P17948 27-1338): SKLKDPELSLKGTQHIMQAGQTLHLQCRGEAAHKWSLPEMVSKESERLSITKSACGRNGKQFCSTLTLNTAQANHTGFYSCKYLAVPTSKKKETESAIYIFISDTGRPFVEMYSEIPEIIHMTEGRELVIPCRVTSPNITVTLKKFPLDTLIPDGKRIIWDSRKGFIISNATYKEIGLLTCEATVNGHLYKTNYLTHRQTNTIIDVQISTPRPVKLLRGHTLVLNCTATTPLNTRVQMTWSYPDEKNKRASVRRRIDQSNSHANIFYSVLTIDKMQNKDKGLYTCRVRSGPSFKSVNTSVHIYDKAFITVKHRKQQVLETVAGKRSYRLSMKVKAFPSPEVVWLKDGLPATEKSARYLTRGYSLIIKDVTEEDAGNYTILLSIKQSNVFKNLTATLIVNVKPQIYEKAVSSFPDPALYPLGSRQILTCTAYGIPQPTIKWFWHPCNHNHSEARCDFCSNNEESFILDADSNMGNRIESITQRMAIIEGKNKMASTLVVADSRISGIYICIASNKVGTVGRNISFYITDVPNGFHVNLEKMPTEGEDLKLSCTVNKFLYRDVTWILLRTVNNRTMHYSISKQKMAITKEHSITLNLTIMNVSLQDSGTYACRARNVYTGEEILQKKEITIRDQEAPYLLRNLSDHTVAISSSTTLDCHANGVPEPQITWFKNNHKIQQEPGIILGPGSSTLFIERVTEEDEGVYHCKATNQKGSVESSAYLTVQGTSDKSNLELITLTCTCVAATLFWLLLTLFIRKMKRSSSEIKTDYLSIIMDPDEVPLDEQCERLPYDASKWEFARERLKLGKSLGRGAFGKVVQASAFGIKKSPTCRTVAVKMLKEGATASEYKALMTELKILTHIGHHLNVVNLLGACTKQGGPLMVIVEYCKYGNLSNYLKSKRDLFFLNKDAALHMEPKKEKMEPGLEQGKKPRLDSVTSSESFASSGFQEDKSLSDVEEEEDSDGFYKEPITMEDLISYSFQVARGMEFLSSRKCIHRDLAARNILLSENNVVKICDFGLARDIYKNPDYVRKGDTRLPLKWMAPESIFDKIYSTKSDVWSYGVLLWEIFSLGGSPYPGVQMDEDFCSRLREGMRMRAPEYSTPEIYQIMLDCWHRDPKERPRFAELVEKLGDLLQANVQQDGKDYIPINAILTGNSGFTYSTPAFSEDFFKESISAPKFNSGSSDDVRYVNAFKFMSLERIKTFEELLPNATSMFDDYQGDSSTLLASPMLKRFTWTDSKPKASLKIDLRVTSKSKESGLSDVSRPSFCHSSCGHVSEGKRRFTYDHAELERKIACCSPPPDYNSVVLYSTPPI
Experimental: as §1, §2

[19] = molecular target: T17, PLK1 (Homo sapiens, UniProt P53350); assay: Mammalian kinase profiling (DSTT panel); assay type: biochemical; conditions: 10 μM; average percentage of remaining activity
T17 construct: purchased Division of Signal Transduction Therapy (DSTT), University of Dundee
Experimental: as §1, §2

[20] = molecular target: T18, PHK (Homo sapiens, UniProt Q16816); assay: Mammalian kinase profiling (DSTT panel); assay type: biochemical; conditions: 10 μM; average percentage of remaining activity
T18 construct: purchased Division of Signal Transduction Therapy (DSTT), University of Dundee
Experimental: as §1, §2

[21] = molecular target: T19, P38s MAPK (Homo sapiens, UniProt O15264); assay: Mammalian kinase profiling (DSTT panel); assay type: biochemical; conditions: 10 μM; average percentage of remaining activity
T19 construct: purchased Division of Signal Transduction Therapy (DSTT), University of Dundee
Experimental: as §1, §2

[22] = molecular target: T20, CAMKKb (Homo sapiens, UniProt Q96RR4); assay: Mammalian kinase profiling (DSTT panel); assay type: biochemical; conditions: 10 μM; average percentage of remaining activity
T20 construct: purchased Division of Signal Transduction Therapy (DSTT), University of Dundee
T20 sequence (Q96RR4 whole entry): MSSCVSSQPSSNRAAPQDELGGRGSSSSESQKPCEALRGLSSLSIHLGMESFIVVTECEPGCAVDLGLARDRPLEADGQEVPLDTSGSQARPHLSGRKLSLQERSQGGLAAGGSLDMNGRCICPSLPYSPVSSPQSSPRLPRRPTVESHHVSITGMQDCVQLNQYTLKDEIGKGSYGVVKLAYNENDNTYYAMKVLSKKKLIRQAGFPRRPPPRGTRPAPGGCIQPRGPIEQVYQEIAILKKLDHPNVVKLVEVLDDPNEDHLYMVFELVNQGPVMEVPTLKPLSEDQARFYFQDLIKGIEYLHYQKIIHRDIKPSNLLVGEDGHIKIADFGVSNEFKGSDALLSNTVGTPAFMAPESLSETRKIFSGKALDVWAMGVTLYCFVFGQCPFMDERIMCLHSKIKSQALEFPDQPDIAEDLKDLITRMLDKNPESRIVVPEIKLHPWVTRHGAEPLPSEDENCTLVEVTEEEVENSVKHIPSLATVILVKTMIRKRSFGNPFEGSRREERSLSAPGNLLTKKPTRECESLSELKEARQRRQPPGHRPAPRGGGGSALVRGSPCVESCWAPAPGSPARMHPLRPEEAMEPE
Experimental: as §1, §2

[23] = molecular target: T21, MNK2 (Homo sapiens, UniProt Q9HBH9); assay: Mammalian kinase profiling (DSTT panel); assay type: biochemical; conditions: 10 μM; average percentage of remaining activity
T21 construct: purchased Division of Signal Transduction Therapy (DSTT), University of Dundee
Experimental: as §1, §2

[24] = test system: AMPK; assay: Mammalian kinase profiling (DSTT panel); assay type: biochemical, human; conditions: 10 μM; average percentage of remaining activity
Experimental: as §1, §2

[25] = molecular target: T22, MST4 (Homo sapiens, UniProt Q9P289); assay: Mammalian kinase profiling (DSTT panel); assay type: biochemical; conditions: 10 μM; average percentage of remaining activity
T22 construct: purchased Division of Signal Transduction Therapy (DSTT), University of Dundee
Experimental: as §1, §2

[26] = molecular target: T23, PKD1 (Homo sapiens, UniProt Q15139); assay: Mammalian kinase profiling (DSTT panel); assay type: biochemical; conditions: 10 μM; average percentage of remaining activity
T23 construct: purchased Division of Signal Transduction Therapy (DSTT), University of Dundee
Experimental: as §1, §2

[27] = molecular target: T24, IKKb (Homo sapiens, UniProt O14920); assay: Mammalian kinase profiling (DSTT panel); assay type: biochemical; conditions: 10 μM; average percentage of remaining activity
T24 construct: purchased Division of Signal Transduction Therapy (DSTT), University of Dundee
Experimental: as §1, §2

[28] = molecular target: T25, PAK6 (Homo sapiens, UniProt Q9NQU5); assay: Mammalian kinase profiling (DSTT panel); assay type: biochemical; conditions: 10 μM; average percentage of remaining activity
T25 construct: purchased Division of Signal Transduction Therapy (DSTT), University of Dundee
Experimental: as §1, §2

[29] = molecular target: T26, Aurora B (Homo sapiens, UniProt Q96GD4); assay: Mammalian kinase profiling (DSTT panel); assay type: biochemical; conditions: 10 μM; average percentage of remaining activity
T26 construct: purchased Division of Signal Transduction Therapy (DSTT), University of Dundee
Experimental: as §1, §2

Sequence of HsGSK3β (P49841 whole entry): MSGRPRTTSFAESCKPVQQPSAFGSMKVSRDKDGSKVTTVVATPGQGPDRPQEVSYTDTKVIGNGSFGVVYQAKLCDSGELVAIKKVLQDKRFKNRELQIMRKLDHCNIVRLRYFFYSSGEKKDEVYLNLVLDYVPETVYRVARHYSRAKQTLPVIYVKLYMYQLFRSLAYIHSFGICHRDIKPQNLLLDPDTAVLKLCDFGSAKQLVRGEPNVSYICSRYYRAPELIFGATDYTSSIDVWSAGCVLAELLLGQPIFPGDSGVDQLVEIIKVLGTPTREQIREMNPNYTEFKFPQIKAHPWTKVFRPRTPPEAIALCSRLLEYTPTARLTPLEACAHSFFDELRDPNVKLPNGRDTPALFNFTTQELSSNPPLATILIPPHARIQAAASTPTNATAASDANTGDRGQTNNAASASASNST

SMILES | ratio HsGSK3β/TbGSK3 [1] | IKK activity compared to the control [2] [%] | PKC zeta activity compared to the control [3] [%] | BRSK2 activity compared to the control [4] [%] | CHK1 activity compared to the control [5] [%] | TBK1 activity compared to the control [6] [%] | CSK activity compared to the control [7] [%] | NEK6 activity compared to the control [8] [%] | FGF-R1 activity compared to the control [9] [%] | MARK3 activity compared to the control [10] [%] | RSK1 activity compared to the control [11] [%] | P38a MAPK activity compared to the control [12] [%] | EF2K activity compared to the control [13] [%] | PAK5 activity compared to the control [14] [%] | IKKe activity compared to the control [15] [%] | MSK1 activity compared to the control [16] [%] | Src activity compared to the control [17] [%] | VEG-FR activity compared to the control [18] [%] | PLK1 activity compared to the control [19] [%] | CAMKKb activity compared to the control [22] [%] | other results
CO[C@H]1CC[C@H](NC(=O)c2n[nH]cc2NC(=O)c2ccccc2)CC1 [Compound 4f, 4-Benzamido-N-(4-methoxycyclohexyl)-1H-pyrazole-3-carboxamide] | >0.21 | 68 | 57 | 55 | 100 | 63 | 85 | 100 | 99 | 84 | 74 | 81 | 99 | 68 | 62 | 80 | 98 | 52 | 100 | 34 | PHK activity compared to the control [20]: 89%; P38s MAPK activity compared to the control [21]: 57%; MNK2 activity compared to the control [23]: 100%
COc1cccc(OC)c1C(=O)Nc1c[nH]nc1C(=O)NC1CCC(OC)CC1 (stereo not drawn) [Compound 4m, 4-(2,6-Dimethoxybenzamido)-N-(4-methoxycyclohexyl)-1H-pyrazole-3-carboxamide] | <2.5 | 90 | – | – | – | – | – | – | – | – | 70 | 80 | – | 75 | – | 86 | – | 90 | – | 50 | AMPK activity compared to the control [24]: 88%; MST4 activity compared to the control [25]: 49%; PKD1 activity compared to the control [26]: 59%; IKKb activity compared to the control [27]: 100%; PAK6 activity compared to the control [28]: 90%; Aurora B activity compared to the control [29]: 87%
CO[C@H]1CC[C@H](NC(=O)c2n[nH]cc2NC(=O)c2ccc(-c3ccccc3)o2)CC1 [Compound 4y, N-(4-Methoxycyclohexyl)-4-(5-phenylfuran-2-carboxamido)-1H-pyrazole-3-carboxamide] | <0.72 | 71 | 60 | 60 | 94 | 73 | 73 | 70 | 72 | 83 | 54 | 71 | 92 | 47 | 46 | 66 | 85 | 29 | 99 | 27 | AMPK activity compared to the control [24]: 49%; MST4 activity compared to the control [25]: 30%; PKD1 activity compared to the control [26]: 59%; IKKb activity compared to the control [27]: 36%; PAK6 activity compared to the control [28]: 71%; Aurora B activity compared to the control [29]: 47%; PHK activity compared to the control [20]: 45%; P38s MAPK activity compared to the control [21]: 38%; MNK2 activity compared to the control [23]: 77%
